This experiment concerns Type IV PDE. Put plainly: PDE inhibitory activity, type IV isozyme (3H-cAMP hydrolysis). The class given is biochemical. As to conditions: partially purified from rat neutrophils, 30° C., 30 minutes. The procedure: Type I, III, IV, and V PDE isozymes were prepared to study the PDE inhibitory activities and selectivities with the compound of the invention [Trends Pharmacol. Sci., 12, 19-27 (1992)]. Type I PDE was purchased from Sigma Corp. Type III, IV, and V PDE isozymes were partially purified from rats platelets (Type III and V) or neutrophils (Type IV). Each enzyme source was homogenized in a buffer (pH 6.5) containing 20 mM bisTris, 2 mM EDTA (ethylenediamine tetraacetate), 0.1 mM PMSF (phenylmethylsulfonyl fluoride), 5 mM 2-mercaptoethanol, 0.001 mM pepstatin, and 0.01 mM leupeptin and was centrifuged at 30,000×G for 30 minutes to obtain a supernatant, which was applied to an ion exchange column (Q-sepharose First Flow, Pharmacia Corp.) and was eluted with 0 to 1M sodium acetate. Partially purified isozymes were identified by observing the effects of conventional inhibitors.
Each PDE isozyme and the test compound dissolved in DMSO (dimethyl sulfoxide) were added to 50 mM Tris-HCl buffer containing 5 mM magnesium chloride. ^3 H-cAMP (for type III and IV PDE) or ^3 H-cGMP (for type I and V PDE) were added as substrates and were reacted at 30° C. for 30 minutes. The reaction was terminated by placing the test tube in boiling water of 100° C. for 5 minutes. The nucleotides formed by PDE were broken down by 5'-nucleotidase to ^3 H-adenosine or ^3 H-guanosine. The unreacted substrate and reaction product were separated through an ion-exchange column (QAE sephadex, Pharmacia Corp.) The eluted ^3 H-nucleoside was measured for its radioactivity by a liquid scintillation counter. The inhibiting activities of the compound of the present invention are shown by the IC50 value (M). Further, the inhibitory activities of the test samples against Type I, III, and V are 1/10 or less than that against type IV.

As usually defined, the IC50 is the point on the concentration scale where inhibition reaches its midpoint. Low values mean higher potency, high ones lower potency. In turn, `COc1ccc(C2CCNC(=O)O2)cc1O[C@H]1CC[C@H](c2ccccc2)CC1` (relative stereo) [Compound No. 78, 6-[4-methoxy-3-(trans-4-phenylcyclohexyloxy)phenyl]-3,4,5,6-tetrahydro-2H-1,3-oxazin-2-one] returned a concentration for half-maximal inhibition (IC50) of 1900 nM.

`COc1ccc(C2CCN(C)C(=O)O2)cc1O[C@H]1CC[C@H](c2ccccc2)CC1` (relative stereo) [Compound No. 79, 6-[4-methoxy-3-(trans-4-phenylcyclohexyloxy)phenyl]-3-methyl-3,4,5,6-tetrahydro-2H-1,3-oxazin-2-one] displayed a 50% inhibitory concentration (IC50) of 1200 nM.

As for `COc1ccc([C@H]2OC(=O)NC[C@H]2c2ccccc2)cc1OC1CCCC1` (relative stereo) [Compound No. 91, rel-(5R,6S)-6-(3-cyclopentyloxy-4-methoxyphenyl)-5-phenyl-3,4,5,6-tetrahydro-2H-1,3-oxazin-2-one], the IC50 worked out at 2700 nM.

For `COc1ccc([C@@H]2OC(=O)NC[C@H]2c2ccccc2)cc1OC1CCCC1` (relative stereo) [Compound No. 92, rel-(5R,6R)-6-(3-cyclopentyloxy-4-methoxyphenyl)-5-phenyl-3,4,5,6-tetrahydro-2H-1,3-oxazin-2-one], it took 900 nM to reach half-maximal inhibition (IC50).

`CCCCOc1cc(C2CCNC(=O)O2)ccc1OC` (stereo not drawn) [Compound No. 3, 6-(3-butoxy-4-methoxyphenyl)-3,4,5,6-tetrahydro-2H-1,3-oxazin-2-one] had an IC50 of 6800 nM.

`COc1ccc(C2(c3ccccc3)CCNC(=O)O2)cc1OC1CCCC1` (stereo not drawn) [Compound No. 7, 6-(3-cyclopentyloxy-4-methoxyphenyl)-6-phenyl-3,4,5,6-tetrahydro-2H-1,3-oxazin-2-one] came in with a concentration for half-maximal inhibition (IC50) of 4300 nM. Against the preceding compound, the IC50 is about 1.6-fold lower.

For `COc1ccc(C2CCN(Cc3ccc4ccccc4n3)C(=O)O2)cc1OC1CCCC1` (stereo not drawn) [Compound No. 12, 6-(3-cyclopentyloxy-4-methoxyphenyl)-3-(2-quinolylmethyl)-3,4,5 6-tetrahydro-2H-1,3-oxazin-2-one], the IC50 turned out to be 73 nM. This IC50 is about 59-fold lower than that of the compound before.

Turning to `COc1ccc(C2CCN(Cc3cccc4ccccc34)C(=O)O2)cc1OC1CCCC1` (stereo not drawn) [Compound No. 13, 6-(3-cyclopentyloxy-4-methoxyphenyl)-3-(1-naphthylmethyl)-3,4,5,6-tetrahydro-2H-1 3-oxazin-2-one], the IC50 stood at 1700 nM. This IC50 lies about 23-fold higher than the previous one.

Turning to `COc1ccc(C2CCN(Cc3ccc4ccccc4c3)C(=O)O2)cc1OC1CCCC1` (stereo not drawn) [Compound No. 15, 6-(3-cyclopentyloxy-4-methoxyphenyl)-3-(2-naphthylmethyl)-3,4,5,6-tetrahydro-2H-1,3-oxazin-2-one], it took 980 nM to reach half-maximal inhibition (IC50). Compared with the last compound, the IC50 is about 1.7-fold lower.

`CCCCN1CCC(c2ccc(OC)c(OC3CCCC3)c2)OC1=O` (stereo not drawn) [Compound No. 17, 3-butyl-6-(3-cyclopentyloxy-4-methoxyphenyl)-3,4,5,6-tetrahydro-2H-1,3-oxazin-2-one]: the IC50 came out at 2100 nM.

On to `COc1ccc(C2CCN(C(=O)c3ccccc3)C(=O)O2)cc1OC1CCCC1` (stereo not drawn) [Compound No. 18, 3-benzoyl-6-(3-cyclopentyloxy-4-methoxyphenyl)-3,4,5,6-tetrahydro-2H-1,3-oxazin-2-one], for which half-maximal inhibition (IC50) was put at 410 nM.

`CCOC(=O)CN1CCC(c2ccc(OC)c(OC3CCCC3)c2)OC1=O` (stereo not drawn) [Compound No. 19, 6-(3-cyclopentyloxy-4-methoxyphenyl)-3-(ethoxycarbonylmethyl)-3,4,5,6-tetrahydro-2H-1,3-oxazin-2-one] yielded a half-maximal inhibitory concentration (IC50) of 1800 nM.

Consider `COc1ccc(C2(C)CCN(Cc3ccncc3)C(=O)O2)cc1OC1CCCC1` (stereo not drawn) [Compound No. 22, 6-(3-cyclopentyloxy-4-methoxyphenyl)-6-methyl-3-(4-pyridylmethyl)-3,4,5,6-tetrahydro-2H-1,3-oxazin-2-one], for which the IC50 was found to be 5900 nM. This IC50 is about 3.3-fold higher than that of the compound before.

For `COc1ccc(C2(c3nccs3)CCNC(=O)O2)cc1OC` (stereo not drawn) [Compound No. 27, 6-(3,4-dimethoxyphenyl)-6-(2-thiazolyl)-3,4,5,6-tetrahydro-2H-1,3-oxazin-2-one], the IC50 came to 21000 nM.

Take `COc1ccc(C2(c3cccs3)CCNC(=O)O2)cc1OC1CCCC1` (stereo not drawn) [Compound No. 29, 6-(3-cyclopentyloxy-4-methoxyphenyl)-6-(2-thienyl)-3,4,5,6-tetrahydro-2H-1,3-oxazin-2-one]: the half-inhibitory concentration (IC50) amounted to 3400 nM.

`CCCCC1(c2ccc(OC)c(OC3CCCC3)c2)CCNC(=O)O1` (stereo not drawn) [Compound No. 30, 6-butyl-6-(3-cyclopentyloxy-4-methoxyphenyl)-3,4,5,6-tetrahydro-2H-1,3-oxazin-2-one] yielded an IC50 of 9000 nM.

As to `COc1ccc(C2(c3nccs3)CCNC(=O)O2)cc1OC1CCCC1` (stereo not drawn) [Compound No. 31, 6-(3-cyclopentyloxy-4-methoxyphenyl)-6-(2-thiazolyl)-3,4,5,6-tetrahydro-2H-1,3-oxazin-2-one], half-maximal inhibition (IC50) was put at 4600 nM.

`COc1ccc(C2CCN(CCN3CCCCC3)C(=O)O2)cc1OC1CCCC1` (stereo not drawn) [Compound No. 32, 6-(3-cyclopentyloxy-4-methoxyphenyl) -3-[2-(1-piperidyl)ethyl]-3,4,5,6-tetrahydro-2H-1,3-oxazin-2-one] showed an IC50 of 32000 nM. This IC50 lies about 7-fold higher than the previous one.

As for `COc1ccc(C2CCN(CCN3CCOCC3)C(=O)O2)cc1OC1CCCC1` (stereo not drawn) [Compound No. 33, 6-(3-cyclopentyloxy-4-methoxyphenyl)-3-[2-(4-morpholino)ethyl]-3,4,5,6-tetrahydro-2H-1,3-oxazin-2-one], the IC50 came to 8800 nM.

Take `COc1ccc(C2CCN(Cc3c(C)c4ccccc4n3C(C)=O)C(=O)O2)cc1OC1CCCC1` (stereo not drawn) [Compound No. 34, 3-(1-acetyl-3-methyl-2-indolylmethyl)-6-(3-cyclopentyloxy-4-methoxyphenyl)-3,4,5,6-tetrahydro-2H-1,3-oxazin-2-one]: 860 nM corresponded to half-maximal inhibition (IC50).

`COc1ccc(C2CCN(Cc3ccco3)C(=O)O2)cc1OC1CCCC1` (stereo not drawn) [Compound No. 35, 6-(3-cyclopentyloxy-4-methoxyphenyl)-3-(2-furylmethyl)-3,4,5,6-tetrahydro-2H-1,3-oxazin-2-one] returned an IC50 of 2000 nM.

`COc1ccc(C2(c3cccnc3)CCNC(=O)O2)cc1OC1CCCC1` (stereo not drawn) [Compound No. 36, 6-(3-cyclopentyloxy-4-methoxyphenyl)-6-(3-pyridyl)-3,4,5,6-tetrahydro-2H-1,3-oxazin-2-one] registered an IC50 of 1600 nM.

For `COc1ccc(C2CCN(Cc3cnccn3)C(=O)O2)cc1OC1CCCC1` (stereo not drawn) [Compound No. 37, 6-(3-cyclopentyloxy-4-methoxyphenyl) -3-(2-pyrazinylmethyl)-3,4,5,6-tetrahydro-2H-1,3-oxazin-2-one], the concentration for half-maximal inhibition (IC50) came out at 4500 nM.

`COc1ccc(C2CCN(Cc3cccs3)C(=O)O2)cc1OC1CCCC1` (stereo not drawn) [Compound No. 38, 6-(3-cyclopentyloxy-4-methoxyphenyl)-3-(2-thienylmethyl)-3,4.56-tetrahydro-2H-1,3-oxazin-2-one]: the IC50 turned out to be 2200 nM. This IC50 is about 2-fold lower than that of the compound before.

Turning to `COc1ccc(C2(c3ccccn3)CCNC(=O)O2)cc1OC1CCCC1` (stereo not drawn) [Compound No. 39, 6-(3-cyclopentyloxy-4-methoxyphenyl)-6-(2-pyridyl)-3,4,5,6-tetrahydro-2H-1,3-oxazin-2-one], the midpoint of inhibition, the IC50, lay at 18000 nM.

Compound `COc1ccc(C2CCNC(=O)O2)cc1OCCCCCc1ccccc1` (stereo not drawn) [Compound No. 41, 6-[4-methoxy-3-(5-phenylpentyloxy)phenyl]-3,4,5,6-tetrahydro-2H-1,3-oxazin-2-one] displayed a 50% inhibitory concentration (IC50) of 730 nM.

`COc1ccc(C2CCN(C)C(=O)O2)cc1OCCCCCc1ccccc1` (stereo not drawn) [Compound No. 42, 6-[4-methoxy-3-(5-phenylpentyloxy)phenyl]-3-methyl-3,4,5,6-tetrahydro-2H-1,3-oxazin-2-one] yielded a half-maximal inhibitory concentration (IC50) of 1000 nM. This IC50 and that of the compound before are within 1.5-fold of each other.

`COc1ccc(C2CCN(C)C(=O)O2)cc1OCCc1ccccc1` (stereo not drawn) [Compound No. 44, 6-(4-methoxy-3-phenethyloxyphenyl)-3-methyl-3,4,5,6-tetrahydro-2H-1,3-oxazin-2-one] came in with an IC50 of 1500 nM.

For the compound `COc1ccc(C2(C)CCNC(=O)O2)cc1OCCCCCc1ccccc1` (stereo not drawn) [Compound No. 45, 6-[4-methoxy-3-(5-phenylpentyloxy)phenyl]-6-methyl-3,4,5,6-tetrahydro-2H-1,3-oxazin-2-one], the half-inhibitory concentration (IC50) is 260 nM. This IC50 is about 5.8-fold lower than that of the compound before.

As for `COc1ccc(C2(C)CCN(C)C(=O)O2)cc1OCCCCCc1ccccc1` (stereo not drawn) [Compound No. 47, 3,6-dimethyl-6-[4-methoxy-3-(5-phenylpentyloxy)phenyl]-3,4,5,6-tetrahydro-2H-1,3-oxazin-2-one], the IC50 worked out at 220 nM. The IC50 values of the last two compounds are within 1.5-fold of each other.

In turn, `COc1ccc(C2(C)CCN(C)C(=O)O2)cc1OCCc1ccccc1` (stereo not drawn) [Compound No. 48, 3. 6-dimethyl-6-(4-methoxy-3-phenethyloxyphenyl)-3,4,5,6-tetrahydro-2H-1,3-oxazin-2-one] yielded an IC50 of 700 nM.

For `CCCCOc1cc(C2(C)CCNC(=O)O2)ccc1OC` (stereo not drawn) [Compound No. 52, 6-(3-butoxy-4-methoxyphenyl)-6-methyl-3,4,5,6-tetrahydro-2H-1,3-oxazin-2-one], the IC50 turned out to be 1400 nM. Against the preceding compound, the IC50 is about 2-fold higher.

The compound `CCCCOc1cc(C2CCN(C)C(=O)O2)ccc1OC` (stereo not drawn) [Compound No. 53, 6-(3-butoxy-4-methoxyphenyl)-3-methyl-3,4,5,6-tetrahydro-2H-1,3-oxazin-2-one] showed a concentration for half-maximal inhibition (IC50) of 9100 nM.

These data come from patent publication US6251897A, “6-phenyltetrahydro-1,3-oxazin-2-one derivative and pharmaceutical composition containing the same” (Nikken Chemicals Co., LTD, priority 1996, dated 2001).
